50 compounds from publication PMC11550483 (2024) can be followed below.

The structures appear in SMILES notation.

The target of the experiment is SARS2 M^pro (Severe acute respiratory syndrome coronavirus 2, UniProt P0DTD1, P3395H). In kind it is biochemical, SARS-CoV-2.
Regarding `O=C(c1cccnc1)N1CCN(c2ccc(Cl)c(Cl)c2)CC1` [MWAC-0001776, Clc1ccc(cc1Cl)N2CCN(CC2)C(=O)c3cccnc3], the “% inhibition (20 µM) biochemical” value was 47%.
As for `CCC(=O)OCC(=O)NCc1ccc2c(c1)OCO2` [MWAC-0001887, CCC(=O)OCC(=O)NCc1ccc2OCOc2c1], the “% inhibition (20 µM) biochemical” value amounted to 0%.
The result for `O=Cc1cc(Cl)ccc1OCC(=O)Nc1ccc(F)cc1` [MWAC-0001783, Fc1ccc(NC(=O)COc2ccc(Cl)cc2C=O)cc1] reads 4%; that for `Cc1ccc(COc2ccc([N+](=O)[O-])cc2C=O)cc1` [MWAC-0001790, Cc1ccc(COc2ccc(cc2C=O)[N+](=O)[O-])cc1], 7%.
The same measure for `Cc1ccc2c(CC(=O)NCc3ccco3)coc2c1C` [MWAC-0001762, Cc1ccc2c(CC(=O)NCc3occc3)coc2c1C]: 11%; for `O=C1/C(=C/c2cccnc2)SC(=S)N1Cc1cccnc1` [MWAC-0001816, O=C1N(Cc2cccnc2)C(=S)S/C/1=C\c3cccnc3]: 43%.
The same measure for `COc1cccc(C(=O)NN2C(=S)N(c3ccccc3)C(=O)C2CC(N)=O)c1` (centres unmarked) [MWAC-0001743, COc1cccc(c1)C(=O)NN2C(CC(=O)N)C(=O)N(C2=S)c3ccccc3]: 6%; for `Cc1ccc(-c2cn3ccc4ccccc4c3n2)cc1` [MWAC-0001723, Cc1ccc(cc1)c2cn3ccc4ccccc4c3n2]: 8%.
For the compound `COc1ccc(-c2nnc(SCc3ccc4c(c3)OCO4)n2-c2ccccc2)cc1` [MWAC-0001881, COc1ccc(cc1)c2nnc(SCc3ccc4OCOc4c3)n2c5ccccc5], the “% inhibition (20 µM) biochemical” value is 0%.
The same measure for `O=C(Nc1ccc(-c2cscn2)cc1)C1CCCN(Cc2ccccc2)C1` (centres unmarked) [MWAC-0001767, O=C(Nc1ccc(cc1)c2cscn2)C3CCCN(Cc4ccccc4)C3]: 3.2%.
The same measure for `Cc1c(C(=O)N2CCCCC2C)sc2nc(-c3ccc(F)cc3)cn12` (centres unmarked) [MWAC-0001747, CC1CCCCN1C(=O)c2sc3nc(cn3c2C)c4ccc(F)cc4]: 5.44%; for `Cc1ccccc1C(=O)Nc1ccc(Br)cc1` [MWAC-0001804, Cc1ccccc1C(=O)Nc2ccc(Br)cc2]: 2.44%; for `Nc1c(C(=O)c2ccccc2)sc2nc(C3CC3)cc(-c3ccco3)c12` [MWAC-0001875, Nc1c(sc2nc(cc(c3occc3)c12)C4CC4)C(=O)c5ccccc5]: 0%.
The same measure for `O=C1OC(NC(=O)c2ccccc2)C(NC(=O)c2ccccc2)=C1Cl` (centres unmarked) [MWAC-0001833, ClC1=C(NC(=O)c2ccccc2)C(NC(=O)c3ccccc3)OC1=O]: 4%.
`CCc1ccc(C2CC(c3ccc(OC)c(OC)c3)=NN2C(C)=O)cc1` (centres unmarked) [MWAC-0001733, CCc1ccc(cc1)C2CC(=NN2C(=O)C)c3ccc(OC)c(OC)c3]: the “% inhibition (20 µM) biochemical” value came out at 7%.
The same measure for `Cc1cc(S(=O)(=O)NC(C)C)ccc1OCC(=O)Nc1cccc([N+](=O)[O-])c1` [MWAC-0001775, CC(C)NS(=O)(=O)c1ccc(OCC(=O)Nc2cccc(c2)[N+](=O)[O-])c(C)c1]: 3.17%; for `O=C(Nc1ccccc1O)c1ccc(Cl)c([N+](=O)[O-])c1` [MWAC-0001814, Oc1ccccc1NC(=O)c2ccc(Cl)c(c2)[N+](=O)[O-]]: 2.59%.
The same measure for `C#CCN1C(=O)C(O)(CC(=O)c2ccc(F)cc2)c2ccccc21` (centres unmarked) [MWAC-0001730, OC1(CC(=O)c2ccc(F)cc2)C(=O)N(CC#C)c3ccccc13]: 8%.
Turning to `COc1ccc(OC)c(C(=O)c2oc3ccccc3c2NC(=O)CCl)c1` [MWAC-0001832, COc1ccc(OC)c(c1)C(=O)c2oc3ccccc3c2NC(=O)CCl], the “% inhibition (20 µM) biochemical” value is on record as 85%.
The result for `COc1ccccc1-c1cc(C(F)(F)F)nc(S(=O)(=O)CCCC(=O)Nc2c(F)cc(F)cc2Br)n1` [MWAC-0001726, COc1ccccc1c2cc(nc(n2)S(=O)(=O)CCCC(=O)Nc3c(F)cc(F)cc3Br)C(F)(F)F] reads 43%.
Consider `COC(=O)c1c(NC(=O)CCl)sc(C(=O)N2CCOCC2)c1C` [MWAC-0001850, COC(=O)c1c(C)c(sc1NC(=O)CCl)C(=O)N2CCOCC2], for which the “% inhibition (20 µM) biochemical” value amounted to 74%.
Consider `CC(C)(C)NC(=O)N[C@H](C(=O)N1C[C@H]2[C@@H]([C@H]1C(=O)NC(CC1CCC1)C(=O)C(N)=O)C2(C)C)C(C)(C)C` (some centres unmarked) [Boceprevir, reference compound], for which the “% inhibition (20 µM) biochemical” value stood at 73.0971%.
The result for `Cc1cc(Br)cc2c1N(C)C(=O)C2(O)CC(=O)c1ccc(Cl)cc1` (centres unmarked) [MWAC-0001785, CN1C(=O)C(O)(CC(=O)c2ccc(Cl)cc2)c3cc(Br)cc(C)c13] reads 4.25%; that for `Cc1noc(N)c1C(=O)Nc1ccc(C(C)(C)C)cc1` [MWAC-0001886, Cc1noc(N)c1C(=O)Nc2ccc(cc2)C(C)(C)C], 0%.
The result for `O=C1C(=O)N(Cc2ccc([N+](=O)[O-])cc2)c2ccc(Br)cc21` [MWAC-0001727, [O-][N+](=O)c1ccc(CN2C(=O)C(=O)c3cc(Br)ccc23)cc1] reads 65%; that for `COc1ccc(CC(=O)N2CCC3(CC2)NC(=O)c2cc(Br)ccc2N3)cc1` [MWAC-0001841, COc1ccc(CC(=O)N2CCC3(CC2)NC(=O)c4cc(Br)ccc4N3)cc1], 0%.
The result for `O=C(Nc1nccs1)c1ccc(F)cc1[N+](=O)[O-]` [MWAC-0001876, [O-][N+](=O)c1cc(F)ccc1C(=O)Nc2nccs2] reads 0%.
Regarding `C=CCN1C(=O)C(O)(CC(=O)c2ccc(C)cc2)c2cc(Br)ccc21` (centres unmarked) [MWAC-0001738, Cc1ccc(cc1)C(=O)CC2(O)C(=O)N(CC=C)c3ccc(Br)cc23], the “% inhibition (20 µM) biochemical” value is on record as 4.69%.
The result for `CCOC(=O)c1[nH]c(C)c(C(=O)Nc2ccccc2SC)c1C` [MWAC-0001737, CCOC(=O)c1[nH]c(C)c(C(=O)Nc2ccccc2SC)c1C] reads 3.56%.
The result for `CCOc1ccc(/C=C2\SC(Nc3ccccc3O)=NC2=O)cc1` [MWAC-0001811, CCOc1ccc(\C=C\2/SC(=NC2=O)Nc3ccccc3O)cc1] reads 5.42%; that for `Cc1cc(CNC(=O)CCl)cc(C)c1O` [MWAC-0001858, Cc1cc(CNC(=O)CCl)cc(C)c1O], 45%; that for `Cc1ccc(Cl)cc1-n1c(SCc2ccccc2Cl)nc2[nH]ncc2c1=O` [MWAC-0001740, Cc1ccc(Cl)cc1N2C(=Nc3[nH]ncc3C2=O)SCc4ccccc4Cl], 9%.
The result for `CCCCN1C(=O)C(O)(CC(=O)c2cccc(OC)c2)c2cc(Br)ccc21` (centres unmarked) [MWAC-0001744, CCCCN1C(=O)C(O)(CC(=O)c2cccc(OC)c2)c3cc(Br)ccc13] reads 10%; that for `CN1C(=O)C(O)(CC(=O)c2ccco2)c2cc(Cl)ccc21` (centres unmarked) [MWAC-0001773, CN1C(=O)C(O)(CC(=O)c2occc2)c3cc(Cl)ccc13], 0.63%.
On to `Nc1c(C(=O)c2ccccc2)sc2nc3c(cc12)CCC3` [MWAC-0001815, Nc1c(sc2nc3CCCc3cc12)C(=O)c4ccccc4], for which the “% inhibition (20 µM) biochemical” value is on record as 27%.
The same measure for `Fc1cccc(/N=c2\oc3ccccc3cc2-c2nc3ccccc3[nH]2)c1` [MWAC-0001716, Fc1cccc(c1)\N=C\2/Oc3ccccc3C=C2c4nc5ccccc5[nH]4]: 0%; for `Cc1cccc(/N=C2/NC(=O)/C(=C\c3ccc(N(C)C)cc3)S2)c1` [MWAC-0001734, CN(C)c1ccc(\C=C/2\S\C(=N/c3cccc(C)c3)\NC2=O)cc1]: 9%; for `CCOC(=O)c1sc(NC(=O)c2sccc2C)cc1C` [MWAC-0001852, CCOC(=O)c1sc(NC(=O)c2sccc2C)cc1C]: 10%.
Regarding `CCOc1ccc(C2NC(=O)c3[nH]nc(-c4cccc(OC)c4)c32)cc1` (centres unmarked) [MWAC-0001753, CCOc1ccc(cc1)C2NC(=O)c3[nH]nc(c4cccc(OC)c4)c23], the “% inhibition (20 µM) biochemical” value was 18%.
`COc1ccc2c(=O)cc(-c3ccc4c(c3)OCCO4)oc2c1` [MWAC-0001860, COc1ccc2C(=O)C=C(Oc2c1)c3ccc4OCCOc4c3]: the “% inhibition (20 µM) biochemical” value came to 100%.
The result for `CC(=O)Nc1cccc(-c2nc3cc(Cl)ccc3o2)c1` [MWAC-0001758, CC(=O)Nc1cccc(c1)c2oc3ccc(Cl)cc3n2] reads 14%; that for `CCN1C(=O)C(=O)c2cc(Cl)ccc21` [MWAC-0001750, CCN1C(=O)C(=O)c2cc(Cl)ccc12], 10%.
For the compound `CCOc1ccccc1N1C(=O)CC(Sc2nnc(-c3ccccc3)[nH]2)C1=O` (centres unmarked) [MWAC-0001798, CCOc1ccccc1N2C(=O)CC(Sc3nnc([nH]3)c4ccccc4)C2=O], the “% inhibition (20 µM) biochemical” value came out at 2.63%.
For the compound `CC(=O)Nc1ccc(OS(=O)(=O)c2ccc(Cl)c3ccccc23)cc1` [MWAC-0001803, CC(=O)Nc1ccc(OS(=O)(=O)c2ccc(Cl)c3ccccc23)cc1], the “% inhibition (20 µM) biochemical” value is listed as 1.42%.
Regarding `COc1ccccc1Nc1nc(-c2ccccn2)cs1` [MWAC-0001885, COc1ccccc1Nc2nc(cs2)c3ccccn3], the “% inhibition (20 µM) biochemical” value is on record as 0%.
The result for `CCOC(=O)CS(=O)(=O)c1ccc(C(=O)N2CCN(C(=O)c3ccco3)CC2)cc1[N+](=O)[O-]` [MWAC-0001736, CCOC(=O)CS(=O)(=O)c1ccc(cc1[N+](=O)[O-])C(=O)N2CCN(CC2)C(=O)c3occc3] reads 14%; that for `O=C1NC(=O)C(=Cc2cc(O)ccc2Br)C(=O)N1` [MWAC-0001754, Oc1ccc(Br)c(C=C2C(=O)NC(=O)NC2=O)c1], 21%; that for `O=C(Nc1cc([N+](=O)[O-])ccc1F)c1cccc(F)c1` [MWAC-0001808, [O-][N+](=O)c1ccc(F)c(NC(=O)c2cccc(F)c2)c1], 1.53%.
The same measure for `O=C(Nc1ccc(Cl)cc1)N1CCc2ccccc21` [MWAC-0001717, Clc1ccc(NC(=O)N2CCc3ccccc23)cc1]: 6%; for `CC(=O)N(/N=C1\Sc2ccccc2C1=O)c1ccccc1C` [MWAC-0001741, CC(=O)N(\N=C\1/Sc2ccccc2C1=O)c3ccccc3C]: 36%.
